# Test results: BindingDB's records for doi:10.1021/jm980560x (University of Minnesota, 1999)
# pKi: −log10 of the molar value.
# Target: not listed separately
# Experiment: Displacement of [3H]vesamicol from Vesicular Acetylcholine Transporter (VAChT)
row,pKi,Compound
1,9.00,O[C@@H]1C[C@H]2CCCN(Cc3ccc(F)cc3)[C@@H]2C[C@H]1N1CCC(c2ccccc2)CC1 [trans-trans-1-(4-fluorobenzyl)-7-(4-phenylpiperidin-1-yl)-decahydroquinolin-6-ol]
2,8.00,"O[C@@H]1C[C@@H]2[C@H](CCCN2Cc2ccc(F)cc2)C[C@H]1N1CCC(c2ccccc2)CC1 [(4aR,6R,7R,8aR)-1-(4-Fluoro-benzyl)-6-(4-phenyl-piperidin-1-yl)-decahydro-quinolin-7-ol]"
3,8.28,"O[C@@H]1C[C@@H]2[C@H](CCCN2Cc2cccc(I)c2)C[C@H]1N1CCC(c2ccccc2)CC1 [(4aR,6R,7R,8aR)-1-(3-Iodo-benzyl)-6-(4-phenyl-piperidin-1-yl)-decahydro-quinolin-7-ol]"
4,5.54,O[C@@H]1CCNC[C@H]1N1CCC(c2ccccc2)CC1
5,9.59,O[C@@H]1C[C@H]2CCCN(Cc3cccc(I)c3)[C@@H]2C[C@H]1N1CCC(c2ccccc2)CC1 [trans-trans-1-(3-iodobenzyl)-7-(4-phenylpiperidin-1-yl)-decahydroquinolin-6-ol]
6,9.52,"O=C(c1ccccc1)N1CCC[C@@H]2C[C@@H](O)[C@H](N3CCC(c4ccccc4)CC3)C[C@H]21 [[(4aR,6R,7R,8aR)-6-Hydroxy-7-(4-phenyl-piperidin-1-yl)-octahydro-quinolin-1-yl]-phenyl-methanone]"
7,9.40,"O[C@@H]1C[C@H]2CCCN(C/C=C/I)[C@@H]2C[C@H]1N1CCC(c2ccccc2)CC1 [(4aR,6R,7R,8aR)-1-((E)-3-Iodo-allyl)-7-(4-phenyl-piperidin-1-yl)-decahydro-quinolin-6-ol]"

# Target: Sigma-2 receptor (Rattus norvegicus)
# Experiment: Binding affinity against Sigma-2 receptor in rat liver membranes using [3H]DTG (DuPont-NEN) as radioligand in the presence of (+)-pentazocine (100 nM)
row,Compound,pKi
1,"O[C@@H]1CCN(Cc2cccc(I)c2)C[C@H]1N1CCC(c2ccccc2)CC1 [(-)-1''-(3-Iodo-benzyl)-4-phenyl-[1,3'']bipiperidinyl-4''-ol]",6.72
2,"O[C@@H]1C[C@H]2CCCN(C/C=C/I)[C@@H]2C[C@H]1N1CCC(c2ccccc2)CC1 [(4aR,6R,7R,8aR)-1-((E)-3-Iodo-allyl)-7-(4-phenyl-piperidin-1-yl)-decahydro-quinolin-6-ol]",6.44
